For data set [1], the system named is MUC5AC secretion from primary human airway epithelial (HAE) cells. As to the kind of experiment: Mucin-secretion assay in HAE cells. To be noted: 10 μM peptide 30 min; for ratio of experimental to baseline MUC5AC secretion, mean: mean of n = 4–5 ALI cultures.
In data set [2] the target is reconstituted airway epithelial SNAREs (Stx3, SNAP-23, VAMP8) and Syt2 (Rattus norvegicus, UniProt P29101). As to the kind of experiment: Single-vesicle content mixing assay, simple reconstitution (SR). As to conditions: for Ca2+ independent fusion per sec: ED Fig 7d.
The subject of data set [3] is neuronal SNAREs alone. As to the kind of experiment: Single-vesicle content mixing assay, neuronal SNAREs alone (VAMP2 vesicles). The format is biochemical.
For data set [4], the target named is Syt1 C2B(QM) quintuple mutant (Rattus norvegicus, UniProt P21707, E295A/R281A/R398A/R399A/Y338W). The data set can be described thus: Bulk fluorescence anisotropy binding. As to conditions: Cy3-labelled SP9, fluorescence anisotropy.
A short description of data set [5]: CD spectroscopy, α-helical content. The format is physicochemical. To be noted: 100 μM peptide in PBS pH 7.4, [φ]222obs relative to model helical decapeptide. The method, then: CD spectra were measured using the AVIV stop-flow CD spectropolarimeter at 190–250 nm using a cell with a 1 mm path length. […] For the correction of the baseline error, the signal from a blank run with PBS buffer was subtracted from all the experimental spectra. The α-helical content of each peptide was calculated by dividing the mean residue ellipticity [φ]222obs by the reported [φ]222obs for a model helical decapeptide.

In data set [6] the test system is airway SNAREs alone. The data set can be described thus: Single-vesicle content mixing assay, airway SNAREs alone (VAMP8 vesicles). To be noted: for Ca2+ independent fusion per sec: ED Fig 7k.
In data set [7] the target is airway SNAREs, Syt2, Munc13-2*, Munc18-2, NSF and αSNAP (Rattus norvegicus, UniProt P29101). As to the kind of experiment: Single-vesicle content mixing assay, complete reconstitution. The format is biochemical. As for the experimental part:
For the complete reconstitution (Fig. 3), to form airway SM vesicles with reconstituted Stx3–Munc18-2 complex, we added the ‘disassembly factors’ (1 μM Munc18-2, 0.5 μM NSF, 5 μM αSNAP, 3 mM ATP and 3 mM Mg^2+) to tethered airway PM vesicles (Fig. 3b), according to previous work with neuronal proteins. This procedure results in tethered SM vesicles.

Data set [8] has as its system reconstituted neuronal SNAREs (Stx1A, SNAP-25A, VAMP2) and Syt1. As to the kind of experiment: Single-vesicle content mixing assay, neuronal SNAREs and Syt1. It is filed as biochemical.
The test system of data set [9] is airway lumenal mucus. As to the kind of experiment: Airway lumenal mucus occlusion in peptide-treated mice. As to conditions: IL-13 metaplasia, 200 μM peptide by microsprayer 30 min before methacholine; sections at 500 µm intervals; each value one mouse.
The target of data set [10] is SP9–Cy3 (hydrocarbon-stapled SNAP-25A fragment SP9 labelled with Cy3 at the C terminus). As to the kind of experiment: fluorescence polarisation; bulk fluorescence anisotropy; 10 nM Cy3-labelled peptide mixed with varying concentrations of unlabelled C2B domain; TBS (20 mM Tris, pH 7.5, 150 mM NaCl, 0.5 mM TCEP), 27.2 °C; Hill equation fit with the Hill coefficient constrained to 1.

Setting [11] is: 10 μM peptide, each value one repeat experiment.

Data on four compounds can be found in publication PMC8967716, “Inhibition of calcium-triggered secretion by hydrocarbon-stapled peptides” (Nature, 2022).

Several values for one entry are separate records, joined by “and”; a condition that tells them apart may be missing. Equal entries are not always repeated. Entries after “also recorded” stand apart in the source; their conditions may differ. Positions of bridges follow the written chain, without caps; N, C: chain ends. Non-standard residues stand in square brackets, D forms with d. Residues, ends and D or L forms follow the SMILES beside them. S5 = C=CCCC[C@](C)(N)C(=O)O

Sequence of reconstituted airway epithelial SNAREs (Stx3, SNAP-23, VAMP8) and Syt2 (P29101 whole entry, the tested form may be a part): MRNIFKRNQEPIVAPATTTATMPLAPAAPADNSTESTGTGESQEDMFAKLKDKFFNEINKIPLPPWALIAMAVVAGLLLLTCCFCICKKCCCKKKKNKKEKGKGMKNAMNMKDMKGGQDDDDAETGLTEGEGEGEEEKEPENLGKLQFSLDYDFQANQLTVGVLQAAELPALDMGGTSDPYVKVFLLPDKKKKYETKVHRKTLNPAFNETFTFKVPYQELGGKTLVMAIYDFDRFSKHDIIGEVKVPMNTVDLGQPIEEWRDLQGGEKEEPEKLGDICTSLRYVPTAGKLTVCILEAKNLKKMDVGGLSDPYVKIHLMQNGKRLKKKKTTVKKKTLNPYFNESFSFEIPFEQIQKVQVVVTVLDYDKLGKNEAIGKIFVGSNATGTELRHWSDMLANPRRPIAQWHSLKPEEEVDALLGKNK
Sequence of airway SNAREs, Syt2, Munc13-2*, Munc18-2, NSF and αSNAP (P29101 whole entry): as the sequence (P29101 whole entry, the tested form may be a part) above
Sequence of Syt2 C2B (C2B domain of synaptotagmin-2, amino acid range 272–422) (P29101 272-422): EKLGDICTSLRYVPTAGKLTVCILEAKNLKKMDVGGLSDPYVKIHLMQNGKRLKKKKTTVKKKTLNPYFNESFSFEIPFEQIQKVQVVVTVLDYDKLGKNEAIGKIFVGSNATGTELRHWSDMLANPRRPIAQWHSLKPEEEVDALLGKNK
Sequence of Syt1 C2B (C2B domain of synaptotagmin-1, amino acid range 271–421) (P21707 271-421): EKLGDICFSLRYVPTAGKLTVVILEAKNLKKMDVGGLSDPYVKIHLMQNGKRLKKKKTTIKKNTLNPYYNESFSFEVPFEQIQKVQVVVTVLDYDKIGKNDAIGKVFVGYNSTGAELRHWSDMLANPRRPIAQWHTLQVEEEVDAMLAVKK
Sequence of Syt1 C2B(QM) quintuple mutant (P21707 271-421 R281A/E295A/Y338W/R398A/R399A): as the sequence (P21707 271-421) above, with R11A, E25A, Y68W, R128A, R129A counted along it

`CC[C@H](C)[C@H](NC(=O)[C@]1(C)CCCC=CCCC[C@](C)(NC(=O)[C@H](CCC(=O)O)NC(=O)[C@H](CCC(=O)O)NC(C)=O)C(=O)N[C@@H](CCCCN)C(=O)N[C@@H](CC(=O)O)C(=O)N[C@@H](C)C(=O)N1)C(=O)N[C@@H](CCCNC(=N)N)C(=O)N[C@@]1(C)CCCC=CCCC[C@@](C)(C(=O)N[C@@H](CC(=O)O)C(=O)N[C@@H](CCC(=O)O)C(=O)N[C@@H](CCC(N)=O)C(=O)N[C@@H](CS)C(N)=O)NC(=O)[C@H](CCSC)NC(=O)[C@H](C(C)C)NC(=O)[C@H](CC(C)C)NC1=O` [SP9] (Ac-EE[S5]KDA[S5]IR[S5]LVM[S5]DEQC-NH2; staple 3-7, 10-14): the “ratio of experimental to baseline MUC5AC secretion, mean” value was 3.4860 in data set [1] (IL13+ATP (100 µM ATP)) and 0.7820 in data set [1] (IL13, no ATP). The “ratio of baseline to reference wash MUC5AC secretion, mean” value in data set [1] (IL-13 cultures, mean of n = 8–10 ALI cultures) is given as 0.7120. In addition, the “Ca2+ independent fusion per sec (average probability)” value is 0.0006901 and 0.0004797 and 0.000382 and 0.0006421 in data set [2] (10 μM peptide added with SG vesicles, each value one repeat experiment); 0.0007718 and 0.0006567 and 0.001053 and 0.0009453 in [3] (setting [11]); 0.0004902 and 0.0004307 and 0.0004714 and 0.0004646 and 0.0003557 and 0.0002469 in [7] (10 μM SP9, each value one repeat experiment). Further, the “effect on Ca2+-independent fusion probability and Ca2+-triggered cumulative fusion probability” value in [2] (10 µM peptide vs no peptide) is on record as “reduced both Ca^2+-triggered and, to a lesser degree, Ca^2+-independent fusion”. Moreover, the “Ca2+ independent fusion per sec” value in [2] (repeat 1) amounted to 0.0006901; in data set [2] (repeat 2), 0.0004797; in data set [2] (repeat 3) it was 0.000382; in data set [2] (repeat 4), 0.0006421; in [6] (repeat 1), 0.0003451; in data set [6] (repeat 2) it was 0.000303. The “Ca2+ independent fusion per sec” value in [6] (repeat 3) worked out at 0.0004574; in data set [6] (repeat 4), 0.0004141. Besides, the “effect on vesicle association” value in data set [2] (SP9 vs no peptide), in data set [7] (10 μM SP9 vs no peptide) and in data set [8] (SP9 vs no peptide) was “no effect” each time. Besides, the Vesicle association in data set [3] (setting [11]) is 135 and 160 and 137; in data set [7] (10 μM SP9 added with SG vesicles, each value one repeat experiment) it was 88 and 78 and 74 and 91; in data set [8] (10 μM peptide added with SV vesicles, each value one repeat experiment), 248 and 327 and 271. For the same compound, the “effect on vesicle fusion without Syt1 (VAMP2 vesicles)” value in [3] (SP9 vs no peptide) was “no effect; also recorded: little effect”. Also, the “binding to quintuple mutant Syt1 C2B(QM)” value in data set [4] is given as “does not bind”. For the same compound, the helicity in solution entry in [5] is listed as “substantial helical content”. Also, the “effect on vesicle fusion without Syt2 (VAMP8 vesicles)” value in [6] (SP9 vs no peptide) is listed as “no effect; also recorded: inhibitory effect of SP9 was eliminated”. In data set [7] (10 μM SP9), the “effect on Ca2+-independent fusion probability” value is recorded as “only moderately reduced; also recorded: relatively modest”. For the same compound, the “effect on Ca2+-triggered fusion amplitude, cumulative fusion probability and synchronization” value in data set [7] (10 μM SP9, 50 μM and 500 μM Ca2+) is given as “strongly inhibited”. Further, the “decrease in the Ca2+-triggered fusion amplitude” value in data set [7] (10 μM SP9 vs no peptide) was “eight to tenfold decrease”. Also, the “triggered fusion accumulative probability (within 1 min)” value in data set [7] (50uM Ca2+, 10 μM SP9, each value one repeat experiment) was 0.0662 and 0.06402 and 0.09074; in data set [7] (500uM Ca2+, 10 μM SP9, each value one repeat experiment) it was 0.08824 and 0.05943 and 0.07879. The “effect on Ca2+-triggered and Ca2+-independent fusion” value in [8] (SP9 vs no peptide) was “reduced both Ca^2+-triggered fusion and Ca^2+-independent fusion”.

For the compound Ac-EESKDAGIRTLVMLDEQ-NH2 [P9], in data set [9], the “sum of lumenal mucus cross-sectional area, caudal lobe of the right lung” value was 0.382 and 0.464 and 0.617 and 0.201 and 0.286 and 0.712 and 0.372.

As to “Syt1 C2B (C2B domain of synaptotagmin-1, amino acid range 271–421) (from UniProt P21707 271-421) (domain or fragment)”, the Kd in data set [10] stood at 24 µM.

In [10], “Syt2 C2B (C2B domain of synaptotagmin-2, amino acid range 272–422) (from UniProt P29101 272-422) (domain or fragment)” gave a Kd of 35 µM.
